Assay results published in patent US6737383B1, “Herbicidal oxadiazolidines” (priority 1999, dated 2004).

Legend:
blackgrass = assay: Test B pre/postemergence blackgrass; assay type: in vivo, Alopecurus myosuroides
In short: (§1)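 Response is a visual 0-to-10 score relative to untreated plants, where 0 means no effect and 10 means complete control, taken twelve to sixteen days after application. Treatments went onto soil at planting and onto foliage of 1- to 4-leaf plants, using a surfactant-containing non-phytotoxic solvent.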

surinam grass = assay: Test B pre/postemergence surinam grass; assay type: in vivo, Brachiaria decumbens
In short: as §1

cocklebur = assay: Test B pre/postemergence cocklebur; assay type: in vivo, Xanthium strumarium
In short: as §1

corn = assay: Test B pre/postemergence corn; assay type: in vivo, Zea mays
In short: as §1

crabgrass = assay: Test B pre/postemergence crabgrass; assay type: in vivo, Digitaria sanguinalis
In short: as §1

giant foxtail = assay: Test B pre/postemergence giant foxtail; assay type: in vivo, Setaria faberii
In short: as §1

morningglory = assay: Test B pre/postemergence morningglory; assay type: in vivo, Ipomoea hederacea; settings: for Plant response rating, Morningglory: scale of 0 to 10 where 0 is no effect and 10 is complete control
In short: as §1

pigweed = assay: Test B pre/postemergence pigweed; assay type: in vivo, Amaranthus retroflexus
In short: as §1

rape = assay: Test B pre/postemergence rape; assay type: in vivo, Brassica napus
In short: as §1

soybean = assay: Test B pre/postemergence soybean; assay type: in vivo, Glycine max
In short: as §1

sugar beet = assay: Test B pre/postemergence sugar beet; assay type: in vivo, Beta vulgaris
In short: as §1

velvetleaf = assay: Test B pre/postemergence velvetleaf; assay type: in vivo, Abutilon theophrasti
In short: as §1

wild oat = assay: Test B pre/postemergence wild oat; assay type: in vivo, Avena fatua
In short: as §1

purple nutsedge = assay: Test B pre/postemergence purple nutsedge; assay type: in vivo, Cyperus rotundus
In short: as §1

smallflower flatsedge = assay: Test B flood test smallflower flatsedge; assay type: in vivo, Cyperus difformis
In short: (§2)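 Read-out is a visual response score from 0 (no effect) to 10 (complete control), assigned by comparison with untreated controls. Treatment was applied at the 2-leaf stage, and plants stayed in the greenhouse for twelve to sixteen days before scoring.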

bamyardgrass = assay: Test B flood test barnyardgrass; assay type: in vivo, Echinochloa crus-galli
In short: as §2

[1] = Postemergence, Rate 250 g/ha, scale 0 to 10
[2] = Postemergence, Rate 500 g/ha, scale of 0 to 10 where 0 is no effect and 10 is complete control
[3] = Preemergence, Rate 62 g/ha, scale of 0 to 10 where 0 is no effect and 10 is complete control
[4] = Preemergence, Rate 125 g/ha, scale of 0 to 10 where 0 is no effect and 10 is complete control
[5] = Preemergence, Rate 250 g/ha, scale 0 to 10, 0 is no effect, 10 is complete control
[6] = Preemergence, Rate 500 g/ha, scale 0 to 10, 0 is no effect, 10 is complete control
[7] = Rate 62 g/ha, Postemergence, scale 0 to 10 (0 no effect, 10 complete control)
[8] = Rate 125 g/ha, Postemergence, scale 0 to 10, 0 is no effect, 10 is complete control
[9] = Postemergence block (flood test species), Rate 250 g/ha, scale 0 to 10
[10] = Postemergence section (flood test species), Rate 500 g/ha, scale of 0 to 10 where 0 is no effect and 10 is complete control
[11] = Rate 62 g/ha, Postemergence (flood test), scale 0 to 10, 0 no effect, 10 complete control
[12] = Rate 125 g/ha, Postemergence section (flood test species), scale 0 to 10, 0 is no effect, 10 is complete control

CC(C)N(C(=O)n1oc(=O)n(CC(=O)N(C)C)c1=O)c1ccc(F)cc1F [Compound 440]
Blackgrass plant response rating (blackgrass; [1]): 4
Blackgrass plant response rating (blackgrass; [2]): 8
Plant response rating, Blackgrass (blackgrass; [3]): 2
Plant response rating, Blackgrass (blackgrass; [4]): 6
Blackgrass plant response rating (blackgrass; [5]): 10
Blackgrass plant response rating (blackgrass; [6]): 10
Blackgrass plant response rating (blackgrass; [7]): 0
Blackgrass plant response rating (blackgrass; [8]): 0
B. signalgrass plant response rating (surinam grass; Postemergence, Rate 250 g/ha, scale 0 to 10, 0 no effect, 10 complete control): 2
B. signalgrass plant response rating (surinam grass; [2]): 8
Plant response rating, B. signalgrass (surinam grass; [3]): 1
Plant response rating, B. signalgrass (surinam grass; [4]): 4
B. signalgrass plant response rating (surinam grass; [5]): 8
B. signalgrass plant response rating (surinam grass; [6]): 8
B. signalgrass plant response rating (surinam grass; [7]): 0
B. signalgrass plant response rating (surinam grass; [8]): 0
Cocklebur plant response rating (cocklebur; [1]): 0
Cocklebur plant response rating (cocklebur; [2]): 0
Plant response rating, Cocklebur (cocklebur; [4]): 0
Cocklebur plant response rating (cocklebur; [5]): 0
Cocklebur plant response rating (cocklebur; [6]): 0
Cocklebur plant response rating (cocklebur; [7]): 0
Cocklebur plant response rating (cocklebur; [8]): 0
Corn plant response rating (corn; [1]): 0
Corn plant response rating (corn; [2]): 0
Plant response rating, Corn (corn; [3]): 0
Plant response rating, Corn (corn; [4]): 0
Corn plant response rating (corn; [5]): 0
Corn plant response rating (corn; [6]): 0
Corn plant response rating (corn; [7]): 0
Corn plant response rating (corn; [8]): 0
Crabgrass plant response rating (crabgrass; [1]): 9
Crabgrass plant response rating (crabgrass; [2]): 9
Plant response rating, Crabgrass (crabgrass; [3]): 7
Plant response rating, Crabgrass (crabgrass; [4]): 7
Crabgrass plant response rating (crabgrass; [5]): 10
Crabgrass plant response rating (crabgrass; [6]): 10
Crabgrass plant response rating (crabgrass; [7]): 1
Crabgrass plant response rating (crabgrass; [8]): 2
Giant foxtail plant response rating (giant foxtail; [1]): 9
Giant foxtail plant response rating (giant foxtail; [2]): 9
Plant response rating, Giant foxtail (giant foxtail; [3]): 6
Plant response rating, Giant foxtail (giant foxtail; [4]): 6
Giant foxtail plant response rating (giant foxtail; [5]): 10
Giant foxtail plant response rating (giant foxtail; [6]): 10
Giant foxtail plant response rating (giant foxtail; [7]): 0
Giant foxtail plant response rating (giant foxtail; [8]): 4
Morningglory plant response rating (morningglory; [1]): 8
Plant response rating, Morningglory (morningglory; Preemergence, Rate 62 g/ha): 0
Plant response rating, Morningglory (morningglory; Preemergence, Rate 125 g/ha): 0
Morningglory plant response rating (morningglory; [5]): 0
Morningglory plant response rating (morningglory; [6]): 0
Morningglory plant response rating (morningglory; [7]): 2
Morningglory plant response rating (morningglory; [8]): 8
Redroot pigweed plant response rating (pigweed; [1]): 3
Redroot pigweed plant response rating (pigweed; [2]): 4
Plant response rating, Redroot pigweed (pigweed; [3]): 0
Plant response rating, Redroot pigweed (pigweed; [4]): 4
Redroot pigweed plant response rating (pigweed; [5]): 7
Redroot pigweed plant response rating (pigweed; [6]): 10
Redroot pigweed plant response rating (pigweed; [7]): 0
Redroot pigweed plant response rating (pigweed; [8]): 1
Rape plant response rating (rape; [1]): 0
Rape plant response rating (rape; [2]): 0
Plant response rating, Rape (rape; [3]): 0
Plant response rating, Rape (rape; [4]): 0
Rape plant response rating (rape; [5]): 3
Rape plant response rating (rape; [6]): 3
Rape plant response rating (rape; [7]): 0
Rape plant response rating (rape; [8]): 0
Soybean plant response rating (soybean; [1]): 6
Soybean plant response rating (soybean; [2]): 7
Plant response rating, Soybean (soybean; [3]): 0
Plant response rating, Soybean (soybean; [4]): 0
Soybean plant response rating (soybean; [5]): 0
Soybean plant response rating (soybean; [6]): 0
Soybean plant response rating (soybean; [7]): 5
Soybean plant response rating (soybean; [8]): 6
Sugarbeets plant response rating (sugar beet; [1]): 0
Sugarbeets plant response rating (sugar beet; [2]): 2
Plant response rating, Sugarbeets (sugar beet; [3]): 0
Plant response rating, Sugarbeets (sugar beet; [4]): 0
Sugarbeets plant response rating (sugar beet; [5]): 4
Sugarbeets plant response rating (sugar beet; [6]): 7
Sugarbeets plant response rating (sugar beet; [7]): 0
Sugarbeets plant response rating (sugar beet; [8]): 0
Velvetleaf plant response rating (velvetleaf; [1]): 0
Velvetleaf plant response rating (velvetleaf; [2]): 2
Plant response rating, Velvetleaf (velvetleaf; [3]): 0
Plant response rating, Velvetleaf (velvetleaf; [4]): 0
Velvetleaf plant response rating (velvetleaf; [5]): 0
Velvetleaf plant response rating (velvetleaf; [6]): 7
Velvetleaf plant response rating (velvetleaf; [7]): 0
Velvetleaf plant response rating (velvetleaf; [8]): 0
Wild oats plant response rating (wild oat; [1]): 0
Wild oats plant response rating (wild oat; [2]): 5
Plant response rating, Wild oats (wild oat; [3]): 0
Plant response rating, Wild oats (wild oat; [4]): 5
Wild oats plant response rating (wild oat; [5]): 9
Wild oats plant response rating (wild oat; [6]): 9
Wild oats plant response rating (wild oat; [7]): 0
Wild oats plant response rating (wild oat; [8]): 0
Nutsedge plant response rating (purple nutsedge; [1]): 0
Nutsedge plant response rating (purple nutsedge; [2]): 0
Plant response rating, Nutsedge (purple nutsedge; [3]): 0
Plant response rating, Nutsedge (purple nutsedge; [4]): 0
Nutsedge plant response rating (purple nutsedge; [5]): 0
Nutsedge plant response rating (purple nutsedge; [7]): 0
Nutsedge plant response rating (purple nutsedge; [8]): 0
S. Flatsedge plant response rating (smallflower flatsedge; [9]): 0
S. Flatsedge plant response rating (smallflower flatsedge; [10]): 0
S. Flatsedge plant response rating (smallflower flatsedge; [11]): 0
S. Flatsedge plant response rating (smallflower flatsedge; [12]): 0
Barnyardgrass plant response rating (bamyardgrass; [9]): 0
Barnyardgrass plant response rating (bamyardgrass; [10]): 0
Barnyardgrass plant response rating (bamyardgrass; [11]): 0
Barnyardgrass plant response rating (bamyardgrass; [12]): 0
